The values that follow come from ChEMBL document CHEMBL3779781, “New direct inhibitors of InhA with antimycobacterial activity based on a tetrahydropyran scaffold” (Eur J Med Chem, 2016).

By IC50 is commonly meant the point on the concentration scale where inhibition reaches its midpoint. What is called MIC is the least concentration at which growth counts as inhibited. The low end stands for greater potency, the high end for weaker potency. Usually IC90 stands for the concentration at which the effect reaches the 90% level.

Data set [1] can be described thus: Inhibition of Mycobacterium tuberculosis InhA using 2-trans-decenoyl-CoA as substrate by fluorimetric analysis in presence of NADH.
The nature of data set [2]: Kinetic solubility of compound in DMSO/phosphate buffered saline at pH7.4 by chemiluminescent nitrogen detection method. The data set is classed as physicochemical. The settings on record: pH 7.4, read-out: Kinetic_solubility.
Data set [3] has as its system Mycobacterium tuberculosis. Description: Antimycobacterial activity against Mycobacterium tuberculosis H37Rv ATCC 25618 after 2 weeks. Type of data set: functional. The settings on record: H37Rv ATCC 25618, 336 h.
The nature of data set [4]: Cytotoxicity against human HepG2 cells by ATP bioluminescence assay. Type of data set: cell-based. The settings on record: read-out: TD50 (the source's name).
In data set [5] the test system is Streptococcus pyogenes. Briefly: Antibacterial activity against Streptococcus pyogenes 1307006P by broth microdilution assay. The data set is classed as functional. (Broth dilution looks for growth in wells or tubes with falling amounts of substance.)
In data set [6] the test system is Streptococcus pneumoniae. Description: Antibacterial activity against Streptococcus pneumoniae ERY2 by broth microdilution assay. Type of data set: functional.
Data set [7] has as its system Staphylococcus aureus. Description: Antibacterial activity against Staphylococcus aureus WCUH29 by broth microdilution assay. The data set is classed as functional.
A further data set relates to Escherichia coli. Description: Antibacterial activity against Escherichia coli 3 by broth microdilution assay. Type of data set: functional.
Data set [8] has as its system Haemophilus influenzae. Description: Antibacterial activity against Haemophilus influenzae Q1 by broth microdilution assay. The data set is classed as functional.
For data set [9], the system named is Mycobacterium tuberculosis. Description: Antimycobacterial activity against Mycobacterium tuberculosis H37Rv ATCC 25618 infected in human THP1 cells assessed as reduction in cell viability after 5 days by luciferase reporter gene assay. The data set is classed as functional. The settings on record: H37Rv ATCC 25618, THP-1, 120 h.
Data set [10] concerns Streptococcus pyogenes. Description: Antibacterial activity against Streptococcus pyogenes 1308007P by broth microdilution assay. The data set is classed as functional.
Data set [11] concerns Haemophilus influenzae. Briefly: Antibacterial activity against Haemophilus influenzae H128 by broth microdilution assay. The data set is classed as functional.
The test system of data set [12] is Staphylococcus aureus. Description: Antibacterial activity against Staphylococcus aureus WCUH29 fmt by broth microdilution assay. Type of data set: functional.
The subject of data set [13] is Mycobacterium tuberculosis. Description: Antimycobacterial activity against Mycobacterium tuberculosis H37Rv by broth microdilution assay. The data set is classed as functional.
For data set [14], the system named is Streptococcus pneumoniae. Briefly: Antibacterial activity against Streptococcus pneumoniae 1629 by broth microdilution assay. Type of data set: functional.
The nature of data set [15]: Selectivity index, ratio of TD50 for human HepG2 cells to MIC for Mycobacterium tuberculosis H37Rv ATCC 25618. Type of data set: toxicity, cell-based. The settings on record: read-out: Selectivity Index.
Data set [16] concerns Streptococcus pneumoniae. Description: Antibacterial activity against Streptococcus pneumoniae N1387 by broth microdilution assay. Type of data set: functional.
Another data set relates to Enterococcus faecalis. Description: Antibacterial activity against Enterococcus faecalis 1 by broth microdilution assay. Type of data set: functional.
Data set [17] concerns Staphylococcus aureus. Briefly: Antibacterial activity against Staphylococcus aureus Oxford by broth microdilution assay. Type of data set: functional.
For data set [18], the target named is Voltage-gated inwardly rectifying potassium channel KCNH2 (Homo sapiens, UniProt Q12809). Description: Inhibition of human ERG by QPatch assay. (In general: In patch-clamp work, channel activity is measured electrically.)
Sequence of Voltage-gated inwardly rectifying potassium channel KCNH2 (Q12809 whole entry): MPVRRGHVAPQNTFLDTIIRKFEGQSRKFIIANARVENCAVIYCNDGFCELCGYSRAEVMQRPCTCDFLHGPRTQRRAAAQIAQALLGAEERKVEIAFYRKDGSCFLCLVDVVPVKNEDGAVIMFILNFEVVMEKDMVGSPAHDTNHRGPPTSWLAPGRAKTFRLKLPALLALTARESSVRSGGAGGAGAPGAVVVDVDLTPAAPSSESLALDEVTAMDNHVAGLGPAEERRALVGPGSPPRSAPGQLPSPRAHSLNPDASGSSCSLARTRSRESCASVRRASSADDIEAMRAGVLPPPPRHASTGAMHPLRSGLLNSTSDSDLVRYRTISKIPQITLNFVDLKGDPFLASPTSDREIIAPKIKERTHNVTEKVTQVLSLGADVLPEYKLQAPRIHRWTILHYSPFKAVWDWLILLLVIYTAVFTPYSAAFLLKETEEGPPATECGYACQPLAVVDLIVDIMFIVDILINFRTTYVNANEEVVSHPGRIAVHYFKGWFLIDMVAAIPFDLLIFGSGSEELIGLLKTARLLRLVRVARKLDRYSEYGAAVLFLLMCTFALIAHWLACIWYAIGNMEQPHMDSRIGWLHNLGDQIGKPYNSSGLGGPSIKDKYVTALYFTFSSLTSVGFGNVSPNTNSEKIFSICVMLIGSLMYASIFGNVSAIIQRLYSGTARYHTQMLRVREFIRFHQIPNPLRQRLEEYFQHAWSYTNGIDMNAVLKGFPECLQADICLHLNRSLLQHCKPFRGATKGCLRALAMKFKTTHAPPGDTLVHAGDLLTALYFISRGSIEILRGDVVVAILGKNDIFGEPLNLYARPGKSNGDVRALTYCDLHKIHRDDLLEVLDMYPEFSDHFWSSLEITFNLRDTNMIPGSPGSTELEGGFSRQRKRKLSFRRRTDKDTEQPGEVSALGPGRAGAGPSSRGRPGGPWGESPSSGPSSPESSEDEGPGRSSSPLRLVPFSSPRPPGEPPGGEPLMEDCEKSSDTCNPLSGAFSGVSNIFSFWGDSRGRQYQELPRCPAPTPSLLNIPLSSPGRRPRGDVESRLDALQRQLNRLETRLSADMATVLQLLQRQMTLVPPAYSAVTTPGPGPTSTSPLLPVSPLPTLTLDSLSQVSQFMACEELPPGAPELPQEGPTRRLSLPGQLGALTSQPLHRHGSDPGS
In data set [19] the test system is Mycobacterium tuberculosis. Description: Antimycobacterial activity against Mycobacterium tuberculosis H37Rv. The data set is classed as functional.
For data set [20], the system named is Haemophilus influenzae. Briefly: Antibacterial activity against Haemophilus influenzae H128 with Acr A- genotype by broth microdilution assay. Type of data set: functional.
A further data set concerns Enterococcus faecium. Description: Antibacterial activity against Enterococcus faecium X7501 by broth microdilution assay. The data set is classed as functional.
Another data set has as its system Moraxella catarrhalis. Description: Antibacterial activity against Moraxella catarrhalis 1502 by broth microdilution assay. Type of data set: functional.

SMILES strings stand for the structures. In brackets after ≈: the same amount, converted by molar mass.

With `COc1ccc(C2(CNC(=O)c3ccc(Cn4nc(C)cc4C)cc3)CCOCC2)cc1`, in [1], the IC50 is 6.38 µM. Further, the solubility kinetic in [2] is at least 458 µM. Also, the MIC in data set [3] is over 125 µM. In addition, the CC50 in data set [4] is over 100 µM.
For the compound `Cc1cc(C)n(Cc2ccc(C(=O)NCC3(c4nc(-c5ccccc5)cs4)CCOCC3)cc2)n1`, the IC50 turned out to be 0.02 µM in [1] and 44.9 µM in data set [18]. The MIC80 in the data set with Streptococcus pyogenes [5], with Streptococcus pneumoniae [6], in the data set on Staphylococcus aureus [7], in the data set with Escherichia coli, in the data set with Haemophilus influenzae [8] and in the data set on Streptococcus pyogenes [10] was over 64 µg/mL in each case. For the same compound, the MIC80 against Haemophilus influenzae [11] is over 64 µg/mL; against Staphylococcus aureus [12], over 64 µg/mL; in data set [13], 5.7 µg/mL (≈ 11.7 µM); in the data set on Streptococcus pneumoniae [14], over 64 µg/mL; in the data set on Streptococcus pneumoniae [16], over 64 µg/mL; against Enterococcus faecalis, over 64 µg/mL. Also, the MIC80 was over 64 µg/mL with Staphylococcus aureus [17], over 64 µg/mL in the data set on Haemophilus influenzae [20], over 64 µg/mL with Enterococcus faecium and 32 µg/mL (≈ 65.8 µM) in the data set with Moraxella catarrhalis. Also, in data set [2], the solubility kinetic was 115 µM (≈ 56 µg/mL). Also, the IC90 in data set [9] is 3.98 µM. For the same compound, the MIC in data set [3] amounted to 11.7 µM (≈ 5.69 µg/mL); in data set [19], 7.8 µM. In data set [15], the selectivity ratio stood at 8.5. Also, the CC50 in data set [4] worked out at 100 µM.
Take `COc1cccc(-c2csc(C3(CNC(=O)c4ccc(Cn5nc(C)cc5C)cc4)CCOCC3)n2)c1`: the IC50 in data set [1] turned out to be 0.323 µM. In data set [2], the solubility kinetic was determined as 72 µM (≈ 37.2 µg/mL). Also, the MIC in [3] is 20 µM (≈ 10.3 µg/mL). The CC50 in data set [4] worked out at 50.1 µM.
For the compound `O=C(NCC1(c2nc(-c3ccccc3)cs2)CCOCC1)c1ccc(-n2ccnc2)cc1`, in [1], the IC50 was over 1 µM. Also, the solubility kinetic in data set [2] was 193 µM (≈ 85.8 µg/mL). Moreover, the MIC in [3] is over 125 µM. For the same compound, the CC50 in data set [4] is over 100 µM.
The compound `NNC(=O)c1ccncc1` [ISONIAZID] returned an MIC in data set [19] of 0.5 µg/mL.
In the case of `O=C(NCC1(c2nc(-c3ccccc3)cs2)CCOCC1)c1ccc(-n2cncn2)cc1`, in [1], the IC50 is over 10 µM. Also, the solubility kinetic in data set [2] was determined as 191 µM (≈ 85.1 µg/mL). This compound also displayed an MIC in [3] of 125 µM (≈ 55.7 µg/mL). Besides, the CC50 in data set [4] is over 100 µM.
The matching figures for `O=C(NCC1(c2nc(-c3ccccc3)cs2)CCOCC1)c1ccc(-c2cnco2)cc1`: over 1 µM, 71 µM (≈ 31.6 µg/mL), 125 µM (≈ 55.7 µg/mL) and 79.4 µM.
For the compound `Cn1c(Nc2ccc(C(=O)NCC3(c4nc(-c5ccccc5)cs4)CCOCC3)cc2)nc2ccccc21`, the IC50 in [1] is over 10 µM. The solubility kinetic in [2] was 10 µM (≈ 5.24 µg/mL). Further, inhibition of growth in data set [3] (MIC) required 94 µM (≈ 49.2 µg/mL). Further, the CC50 in [4] was 20 µM.
`Cc1cnc(Nc2ccc(C(=O)NCC3(c4nc(-c5ccccc5)cs4)CCOCC3)cc2)s1`: the half-inhibitory concentration (IC50) in [1] was over 10 µM. Also, in [2], the solubility kinetic was under 1 µM. Further, the MIC in [3] is over 80 µM. The CC50 in data set [4] is over 100 µM.
Take `Cc1cc(C)n(Cc2ccc(C(=O)NCC3(c4ccc(-c5ccccc5)cc4)CCOCC3)cc2)n1`: in data set [1], the IC50 came out at 0.029 µM. Further, in data set [2], the solubility kinetic was 77 µM (≈ 36.9 µg/mL). The same compound returned a minimal inhibitory concentration (MIC) in [3] of 16 µM (≈ 7.67 µg/mL). Besides, in data set [15], the selectivity ratio came to 5. In addition, in data set [4], the CC50 was found to be 79.4 µM.
Regarding `Cn1ccc(Nc2ccc(C(=O)NCC3(c4nc(-c5ccccc5)cs4)CCOCC3)cc2)n1`, the IC50 in data set [1] was 5.56 µM. The solubility kinetic in [2] amounted to 48 µM (≈ 22.7 µg/mL). The same compound came in with an MIC in [3] of over 125 µM. For the same compound, the CC50 in data set [4] came out at 79.4 µM.
`O=C(NCC1(c2nc(-c3ccccc3)cs2)CCOCC1)c1ccc(N2CCOCC2)cc1`: the half-inhibitory concentration (IC50) in [1] is over 1 µM. Moreover, the solubility kinetic in data set [2] is 138 µM (≈ 64 µg/mL). The compound further displayed an MIC in data set [3] of over 125 µM. Besides, in [4], the CC50 is over 100 µM.
As for `O=C(NCC1(c2nc(-c3ccccc3)cs2)CCOCC1)c1ccc(Nc2nncs2)cc1`, the IC50 in [1] was over 10 µM. Moreover, the solubility kinetic in [2] amounted to 29 µM (≈ 13.9 µg/mL). In data set [3], this compound displayed an MIC of over 125 µM. The CC50 in data set [4] came to 63.1 µM.
For `O=C(NCC1(c2nc(-c3ccccc3)cs2)CCOCC1)c1ccc(CN2CCCCC2)cc1`, in [1], the IC50 was over 1 µM. In addition, the solubility kinetic in data set [2] is at least 396 µM. In addition, the MIC in data set [3] was over 125 µM. Also, in data set [4], the CC50 came out at 79.4 µM.
With `COc1ccccc1-c1csc(C2(CNC(=O)c3ccc(Cn4nc(C)cc4C)cc3)CCOCC2)n1`, the IC50 in [1] is 0.036 µM. For the same compound, in data set [2], the solubility kinetic amounted to 78 µM (≈ 40.3 µg/mL). In data set [3], this compound displayed a minimum inhibitory concentration (MIC) of 5 µM (≈ 2.58 µg/mL). In [15], the selectivity ratio worked out at 10. Besides, the CC50 in data set [4] turned out to be 50.1 µM.
For the compound `Cc1cc(C)n(-c2ccc(C(=O)NCC3(c4nc(-c5ccccc5)cs4)CCOCC3)cc2)n1`, the IC50 in data set [1] was over 100 µM. Also, in data set [2], the solubility kinetic is 33 µM (≈ 15.6 µg/mL). This compound showed an MIC in data set [3] of 80 µM (≈ 37.8 µg/mL). For the same compound, the CC50 in data set [4] worked out at 87.1 µM.
Turning to `O=C(NCC1(c2nc(-c3ccccc3)cs2)CCOCC1)c1ccc(Nc2ccccn2)cc1`, the concentration for half-maximal inhibition (IC50) in data set [1] is over 10 µM. For the same compound, the solubility kinetic in [2] turned out to be 12 µM (≈ 5.65 µg/mL). In data set [3], this compound registered a minimal inhibitory concentration (MIC) of over 80 µM. For the same compound, the CC50 in data set [4] is 63.1 µM.
Regarding `Cc1cc(C)n(Cc2ccc(C(=O)NCC3(c4ccccn4)CCOCC3)cc2)n1`, in [1], the IC50 was over 10 µM. Besides, the solubility kinetic in data set [2] was at least 445 µM. In addition, in [3], the MIC was over 125 µM. In data set [4], the CC50 was over 100 µM.
As to `O=C(NCC1(c2nc(-c3ccccc3)cs2)CCOCC1)c1ccc(Nc2nc3ccccc3s2)cc1`, the IC50 in data set [1] was over 10 µM. Further, the solubility kinetic in data set [2] is 4 µM (≈ 2.11 µg/mL). Besides, the MIC in [3] is over 125 µM. Moreover, the CC50 in data set [4] turned out to be 12.6 µM.
In the case of `Cc1cc(C)n(Cc2ccc(C(=O)NCC3(c4ccc5c(c4)OCO5)CCOCC3)cc2)n1`, the IC50 in [1] amounted to 7.94 µM. Besides, the solubility kinetic in [2] is at least 478 µM. The compound further had an MIC in data set [3] of 125 µM (≈ 55.9 µg/mL). In addition, in data set [4], the CC50 is over 100 µM.
